Usually IC50 stands for the midpoint of a concentration-inhibition curve. Usually Ki stands for the equilibrium dissociation constant of an inhibitor or competing ligand from its target. Higher therefore signals weaker binding.

Consider four compounds from ChEMBL document CHEMBL1127333, “Antiviral enantiomeric preference for 5'-noraristeromycin” (J Med Chem, 1994).

Test [1] has as its system CCRF-CEM. Description: Activity against HIV-1 induced cytopathicity in CEM cells. It is filed as functional. The following applies: Homo sapiens.
Test [2] has as its system CCRF-CEM. Description: Activity against HIV-2 induced cytopathicity in CEM cells. The following applies: Homo sapiens. It is filed as functional. Background: Damage to the host cells serves as the signal in cytopathic effect assays.
The subject of test [3] is E6SM. The test is described as follows: Activity against HSV-1(KOS) virus induced cytopathicity in E6SM cells. It is filed as functional. The following applies: Homo sapiens.
For test [4], the system named is E6SM. The test is described as follows: Activity against HSV-2(G) virus induced cytopathicity in E6SM cells. The following applies: Homo sapiens. It is filed as functional.
Test [5] has as its system E6SM. Description: Activity against VSV virus induced cytopathicity in E6SM cells. The following applies: Homo sapiens. It is filed as functional.
The subject of test [6] is HEL. The test is described as follows: Activity against CMV (AD-169) induced cytopathicity in HEL cells. It is filed as functional. The following applies: Homo sapiens.
Test [7] has as its system HEL. The test is described as follows: Activity against CMV (Davis) induced cytopathicity in HEL cells. It is filed as functional. The following applies: Homo sapiens.
In test [8] the test system is HEL. The test is described as follows: Activity against VZV (OKA) induced cytopathicity in HEL cells. It is filed as functional. The following applies: Homo sapiens.
The test system of test [9] is HEL. Description: Activity against VZV (YS) induced cytopathicity in HEL cells. It is filed as functional. The following applies: Homo sapiens.
The test system of test [10] is Respiratory syncytial virus. The test is described as follows: Activity against RSV (strain Long) virus induced cytopathicity in HeLa cells. It is filed as functional. The following applies: human respiratory syncytial virus.
In test [11] the test system is HeLa. The test is described as follows: Activity against VSV virus induced cytopathicity in HeLa cells. It is filed as functional. The following applies: Homo sapiens.
The subject of test [12] is HeLa. Description: Activity against coxsackie B4 virus induced cytopathicity in HeLa cells. The following applies: Homo sapiens. It is filed as functional.
In test [13] the test system is HeLa. The test is described as follows: Activity against parainfluenza-3 virus induced cytopathicity in HeLa cells. It is filed as functional. The following applies: Homo sapiens.
The subject of a further test is L1210. Description: Inhibitory concentration on murine leukemia L1210/0 cells. It is filed as functional, cell-based. The following applies: Mus musculus.
For test [14], the system named is MDCK. The test is described as follows: Activity against influenza B virus induced cytopathicity in MDCK cells. It is filed as functional. The following applies: Canis lupus familiaris.
Test [15] is filed under the species Homo sapiens. The test is described as follows: Inhibitory concentration on human T-lymphocyte Molt4 (clone 8) cells. It is filed as functional, cell-based. The following applies: MOLT-4.
For test [16], the system named is Vero. The test is described as follows: Activity against reovirus-1 induced cytopathicity in Vero cells. It is filed as functional. The following applies: Chlorocebus sabaeus.
In test [17] the test system is Vero. Description: Activity against semliki forest virus induced cytopathicity in Vero cells. It is filed as functional. The following applies: Chlorocebus sabaeus.
Test [18] deals with Vero. The test is described as follows: Activity against sindbis virus induced cytopathicity in Vero cells. It is filed as functional. The following applies: Chlorocebus sabaeus.
The test system of test [19] is E6SM. Description: Activity against VV virus induced cytopathicity in E6SM cells. It is filed as functional. The following applies: Homo sapiens.
The species named for test [20] is Homo sapiens. The test is described as follows: Inhibitory concentration on human T-lymphocyte CEM/0 cells. It is filed as functional, cell-based. The following applies: CCRF-CEM.
Test [21] has as its system MDCK. The test is described as follows: Activity against influenza A virus induced cytopathicity in MDCK cells. It is filed as functional. The following applies: Canis lupus familiaris.
Test [22] has as its system HeLa. Description: cells. The following applies: Homo sapiens.
Test [23] deals with Vero. Description: cells. The following applies: Chlorocebus sabaeus.
Test [24] relates to Vero. Description: cells. The following applies: Chlorocebus sabaeus. This is another data set of the same source.
In test [25] the test system is MDCK. The test is described as follows: cells. The following applies: Canis lupus familiaris.
Test [26] concerns MDCK. The test is described as follows: cells. The following applies: Canis lupus familiaris. This is another data set of the same source.
A further test addresses Adenosylhomocysteinase (Mus musculus, UniProt P50247). Description: Binding affinity against L929 cells AdoHcy hydrolase activity. It is filed as cell-based.
The species entered for test [27] is Homo sapiens. The test is described as follows: Inhibitory concentration on human T-lymphocyte Molt(clone 8) cells. It is filed as functional, cell-based.

In brackets after ≈: the same amount, converted by molar mass.

Adenosylhomocysteinase, sequence (P50247 whole entry): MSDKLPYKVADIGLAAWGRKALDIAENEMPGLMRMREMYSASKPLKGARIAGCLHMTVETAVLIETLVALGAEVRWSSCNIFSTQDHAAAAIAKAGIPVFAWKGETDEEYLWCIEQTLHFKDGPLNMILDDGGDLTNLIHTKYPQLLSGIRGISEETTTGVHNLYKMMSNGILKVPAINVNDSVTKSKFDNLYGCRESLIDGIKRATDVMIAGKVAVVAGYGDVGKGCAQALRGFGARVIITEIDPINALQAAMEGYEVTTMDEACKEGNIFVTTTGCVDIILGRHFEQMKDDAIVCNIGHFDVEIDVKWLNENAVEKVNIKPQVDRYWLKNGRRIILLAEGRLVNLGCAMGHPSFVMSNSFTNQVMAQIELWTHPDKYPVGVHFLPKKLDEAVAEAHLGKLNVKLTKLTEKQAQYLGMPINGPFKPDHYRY

On to `Nc1ncnc2c1ncn2[C@@H]1C[C@H](O)[C@@H](O)[C@H]1O` [NORARISTEROMYCIN], for which the MIC50 is more than 0.16 µg/mL against CCRF-CEM [1]; more than 0.16 µg/mL in the test with CCRF-CEM [2]; more than 400 µg/mL against E6SM [3]; more than 400 µg/mL against E6SM [4]; 0.1 µg/mL (≈ 0.398 µM) against E6SM [5]; 0.01 µg/mL (≈ 0.0398 µM) in the test with HEL [6]. For the same compound, the MIC50 is 0.03 µg/mL (≈ 0.119 µM) in the test with HEL [7]; more than 50 µg/mL against HEL [8]; more than 50 µg/mL in the test with HEL [9]; more than 200 µg/mL in test [10]; 0.2 µg/mL (≈ 0.796 µM) against HeLa [11]; more than 400 µg/mL against HeLa [12]. Besides, the MIC50 is 0.07 µg/mL (≈ 0.279 µM) in the test on HeLa [13]; more than 100 µg/mL against MDCK [14]; 0.7 µg/mL (≈ 2.79 µM) against Vero [16]; more than 400 µg/mL against Vero [17]; more than 400 µg/mL in the test on Vero [18]; 0.04 µg/mL (≈ 0.159 µM) against E6SM [19]. Besides, the MIC50 is more than 100 µg/mL in the test with MDCK [21], more than 400 µg/mL in the test with HeLa [22], 6 µg/mL (≈ 23.9 µM) against Vero [23] and 8 µg/mL (≈ 31.8 µM) in the test on Vero [24]. For the same compound, the IC50 was 500 nM in the test with L1210, 390 nM in the test filed under Homo sapiens [15] and 420 nM in the test filed under Homo sapiens [20].
`Nc1ncnc2c1ncn2[C@H]1C[C@@H](O)[C@H](O)[C@@H]1O`: the MIC50 was more than 4 µg/mL against CCRF-CEM [1]; more than 4 µg/mL in the test with CCRF-CEM [2]; more than 400 µg/mL in the test with E6SM [3]; more than 400 µg/mL in the test with E6SM [4]; 2 µg/mL (≈ 7.96 µM) in the test with E6SM [5]; 5 µg/mL (≈ 19.9 µM) with HEL [6]. Further, the MIC50 against HEL [7] was 3 µg/mL (≈ 11.9 µM); with HEL [8], more than 50 µg/mL; against HEL [9] it was more than 50 µg/mL; in test [10], more than 200 µg/mL; in the test with HeLa [11], 2 µg/mL (≈ 7.96 µM); with HeLa [12], more than 400 µg/mL. The MIC50 is 0.2 µg/mL (≈ 0.796 µM) against HeLa [13]; 7 µg/mL (≈ 27.9 µM) in the test with Vero [16]; more than 400 µg/mL in the test on Vero [17]; more than 400 µg/mL against Vero [18]; 0.7 µg/mL (≈ 2.79 µM) with E6SM [19]; more than 400 µg/mL against HeLa [22]. Besides, the MIC50 in the test on MDCK [25] was more than 200 µg/mL; with MDCK [26], more than 200 µg/mL; in the test on Vero [23], 30 µg/mL (≈ 119 µM); against Vero [24] it was 50 µg/mL (≈ 199 µM). Further, the half-inhibitory concentration (IC50) in the test with L1210 came to 5700 nM; in the test filed under Homo sapiens [15], 4650 nM; in the test filed under Homo sapiens [20], 3990 nM.
`Nc1ncnc2c1ncn2C1CC(O)C(O)C1O` (racemic): the IC50 was 630 nM with L1210, 580 nM in the test filed under Homo sapiens [27] and 680 nM in the test listed under Homo sapiens [20]. The compound further registered an inhibition constant Ki at Adenosylhomocysteinase of 11.1 nM.
As to `Nc1ncnc2c1ncn2[C@@H]1C=C(CO)[C@@H](O)[C@H]1O` [NEOPLANOCIN A], the MIC50 is 70 µg/mL (≈ 266 µM) with E6SM [3]; more than 100 µg/mL against E6SM [4]; 2 µg/mL (≈ 7.6 µM) against E6SM [5]; 0.2 µg/mL (≈ 0.76 µM) against HEL [6]; 0.2 µg/mL (≈ 0.76 µM) against HEL [7]; 6 µg/mL (≈ 22.8 µM) in the test with HEL [8]. Moreover, the MIC50 with HEL [9] is 3.5 µg/mL (≈ 13.3 µM); in [10], more than 1.2 µg/mL; with HeLa [11] it was 2 µg/mL (≈ 7.6 µM); against HeLa [12], more than 10 µg/mL; with HeLa [13], 0.2 µg/mL (≈ 0.76 µM); in the test with Vero [16] it was 0.7 µg/mL (≈ 2.66 µM). Besides, the MIC50 was more than 10 µg/mL in the test with Vero [17]; more than 10 µg/mL in the test with Vero [18]; 0.2 µg/mL (≈ 0.76 µM) in the test on E6SM [19]; more than 10 µg/mL with HeLa [22]; 1.2 µg/mL (≈ 4.56 µM) with MDCK [25]; more than 2.8 µg/mL against MDCK [26]. Besides, the MIC50 with Vero [23] and with Vero [24] was 0.4 µg/mL (≈ 1.52 µM) each time. On Adenosylhomocysteinase, this compound had an inhibitory constant (Ki) of 3 nM.
